Laboratory results: patent publication US20240307819A1, “ELECTROCHEMICAL TARGET SPECIES CAPTURE WITH A REDOX-ACTIVE AMINE” (Massachusetts Institute of Technology, priority 2021, published 2024)

Columns and labels:
[1] = Cyclic voltammetry of the redox-active amines; details: for Potential gap / Ep^oxi vs Ag/AgCl / Ep^red vs Ag/AgCl: Table 1; for Potential gap: gap between Ep^oxi and Ep^red; for Ep^oxi vs Ag/AgCl / Ep^red vs Ag/AgCl: techniques of Example 1
Description: Potentials were recorded versus Ag/AgCl as a reference electrode.
Cyclic voltammetry (CV) was conducted to probe the mechanism of this process as depicted in FIG. 4E.
Each of structures 1-20 were assessed for electrochemical capture and release of carbon dioxide in accordance with the techniques described above in Example 1. Absorption capacities for carbon dioxide are reported in units of moles of CO2 per mole of amine. […] For the release experiments, 3.5 mL solutions of amine and captured carbon dioxide at concentrations ranging from 0.1-0.2 M of amine were electrochemically oxidized at a constant current of 50 mA while released CO2 was measured as a function of charge passed.

[2] = Electrochemical release of CO2 by constant-current oxidation in an H-cell (electron utilization); parameters: key to stable electron utilization: moles CO2 released per mole of electrons transferred; details: for εCO2 (electron utilization during CO2 release): moles of CO2 released per moles of electrons, 0.1-0.2 M amine, constant current 50 mA
Description: FIGS. 5A-5F are related to electrochemical release of CO2. FIG. 5A is a schematic of the experimental setup for CO2 release. […] The amount of released CO2 (curve A) and electron utilization (curve B) are shown versus electric charge.
A bench-scale setup using an electrochemical H-cell was constructed and tested for the capture and release of CO2 (FIG. 5A). The system was equipped with an anion exchange membrane separating two 5 mL reaction chambers, carbon felt as a working electrode, and a stainless steel wire electrode for an arbitrary reaction in the counter chamber. […] Then, pure CO2 was bubbled into the solution for 10 min to complete the saturation of the electrochemically generated 1-Apyl radical dimer 3 solution. […] The electron utilization (εCO2) during CO2 release on oxidation represents the ratio between the moles of CO2 released and the moles of electrons transferred (equation 1): […]

[3] = CO2 absorption by electrochemically reduced amine solutions; details: for CO2 capacity (absorption capacity): 1 mL aqueous 0.1-0.2 M amine, reduced, 15% CO2 inlet gas
Description: FIGS. 6A-6D are related to CO2 absorption dynamics in 1-APyl radical 2 solutions. […] 0.2 M 1-APyl radical 2 solution in 1 mL of water was contacted with the gas at a flow rate of 3.3 mL/min at room temperature. […] 1 mL of 0.04 M 1-APyl radical 2 solution was contacted with the gas at a flow rate of 3.3 mL/min at room temperature. […] A flow of 15% CO2 concentration balanced by nitrogen was used.
The changes in flow rate and concentration of CO2 were monitored by a CO2 flow meter and an FT-IR CO2 sensor, respectively.

[4] = Stability test of 1-APyl radical solution (oxygen sensitivity and nitrogen controls); assay type: physicochemical; details: 0.2 M, 5 mL
Description: (§1) FIGS. 8A-8C are related to direct air capture and stability test of 1-APyl radical 2 solution. […] 0.1, 0.2, and 0.4 M 1-APyl radical 2 aqueous solutions (1 mL) were bubbled with air at a flow rate of 3.3 mL/min at room temperature. […] The 1-APyl radical 2 solutions (0.2 M, 5 mL) were bubbled with dioxygen for 1 and 30 days (curve shading matching the shading of the labels in the figure) at a flow rate of 10 mL/min followed by contact with pure CO2 for an additional 12 min. The 1-APyl radical 2 solutions were sealed under nitrogen for 1 and 30 days followed by contact with pure CO2 for 12 min for the control experiments.
To test the stability of the 1-APyl radical in air, a set of experiments was carried out (FIG. 8C). Exposure to pure dioxygen (10 mL/min) of the 1-APyl radical 2 solution (0.2 M, 5 mL) for 1 and 30 days (see corresponding curve in FIG. 8C) followed by saturation with pure CO2 provided 6.6% and 46% decrease, respectively, of the capacity of the system compared to the output for the freshly CO2-saturated solution (see corresponding curve in FIG. 8C). […] Although further studies for the stability under the various conditions are warranted, operation in the presence of oxygen remains feasible.

Aqueous solubility = assay type: physicochemical; details: Table 1, aqueous solution
[5] = in water; cited from earlier work
[6] = Cyclic stability of electrochemical CO2 capture and release over 5 cycles
Description: FIGS. 7A-7D are related to cyclic stability of the electrochemical CO2 capture and release by 1-AP nitrate (1) redox system for 5 cycles.
The reversible capture and release of CO2 was tested over five cycles to evaluate the robustness of the 1-AP nitrate redox cycle (FIG. 7A-7D). The cyclic stability was evaluated with a 0.8 mmol amine solution and restricted to operate at 80% of the full capacity of the cell in order to minimize undesired side reactions. The gas output and CO2 fraction were monitored to show reproducible and stable capture and release of CO2 during five cycles under the applied current conditions. The gas release rate was steady at 0.75 mL/min, consistent with the release of one mole of CO2 per mole electrons transferred under steady current flow in each cycle.

[7] = Direct capture of CO2 from ambient air, then electrochemical oxidation; details: 0.2 M, 3.5 mL, bubbled with air 18 h at ca. 100 mL/min
Description: as §1
We next sought to expand the use of the 1-AP nitrate redox cycle to the direct capture of CO2 from ambient air (FIGS. 8A-8C). The 1-APyl radical dimer 3 solution (3.5 mL) was prepared by first reducing a 0.2 M 1-AP nitrate (1) solution, and then bubbling the solution with non-pretreated air for 18 h at a flow rate of ca. 100 mL/min (FIG. 8A). Electrochemical oxidation of the air-bubbled solution was carried out to evaluate the direct air capture efficiency. The system presented electron utilization during CO2 release of up to 0.78 with 36% cell capacity usage with the 0.2 M solution. […] Initial CO2 absorption rates from the ambient air were measured in 0.1, 0.2, and 0.4 M solutions of 1-APyl radical 2 (FIG. 8B). […]

[8] = 20 mM in water, 0.1 M potassium nitrate, nitrogen, platinum working electrode, 20 mV/s, room temperature

| Compound | Potential gap [1] [V] | Ep^oxi vs Ag/AgCl [1] [V] | Ep^red vs Ag/AgCl [1] [V] | εCO2 (electron utilization during CO2 release) ([2]; 3.5 mL) | CO2 capacity (absorption capacity) ([3]; 3.3 mL/min) | further results |
| --- | --- | --- | --- | --- | --- | --- |
| N#Cc1cc[n+](N)cc1.O=[N+]([O-])[O-] [Entry 8] | 1.43 | 0.88 | −0.55 | 0.70 | 1.65 moles of CO2 per mole of amine |  |
| Cc1cc(C)c[n+](N)c1.[O-][Cl+3]([O-])([O-])[O-] [Entry 18] | 1.96 | 1.52 | −0.44 |  |  |  |
| Nc1ccc[n+](N)c1 [Entry 15] | 1.73 | 1.03 | −0.70 | 0.72 | 1.1 moles of CO2 per mole of amine |  |
| CNc1cc[n+](N)cc1.O=[N+]([O-])[O-] [Entry 12] | 1.34 | 0.87 | −0.47 | 0.91 | 1.6 moles of CO2 per mole of amine |  |
| Nc1cc[n+](N)cc1 [Entry 5] | 1.44 | 1.02 | −0.48 | 0.99 | 2.3 moles of CO2 per mole of amine |  |
| 1-aminopyridinyl (1-APyl) radical [1-APyl radical 2] |  |  |  |  |  | stability in water (from quasi-reversible CV wave) ([1]; water, room temperature): stable in water at room temperature; decrease of the capacity of the system ([4]; bubbled with nitrogen 10 mL/min, 30 days): 54%; decrease of the capacity of the system ([4]; pure dioxygen 10 mL/min, 1 day, vs freshly CO2-saturated solution): 6.6%; decrease of the capacity of the system ([4]; pure dioxygen 10 mL/min, 30 days): 46%; decrease of the capacity of the system ([4]; sealed under nitrogen, 1 day): 7.2%; decrease of the capacity of the system ([4]; sealed under nitrogen, 30 days): 22%; CO2 absorption rate compared with EDA and MEA ([3]; 0.2 M in 1 mL water, 15% CO2 balanced by nitrogen): comparable; constant CO2 capacity ([3]; 1, 4, 15 and 100% CO2 inlet gas streams, 3.3 mL/min, room temperature): 1.94 mole of CO2 per mole of amine |
| N[n+]1c2ccccc2nc2ccccc21 [Entry 20, amino-phenazinium] |  |  |  |  |  | solubility (Aqueous solubility; read-out: Low solubility (Observations)): < 10 mM |
| O=C(O)O [carbonic acid] |  |  |  |  |  | pKa [5]: approximately 6.8 |
| COC(=O)c1cc[n+](N)cc1.F[B-](F)(F)F [Entry 1] |  |  | −0.34 |  |  |  |
| CC(C)(C)c1cc[n+](N)cc1.[O-][Cl+3]([O-])([O-])[O-] [Entry 3] | 1.31 | 0.83 | −0.48 | 0.52 |  | Low solubility (Observations) (Aqueous solubility): (<0.2M) |
| N[n+]1ccc(O)cc1 [Entry 9] | 1.41 | 0.85 | −0.56 | 0.32 | 0.95 moles of CO2 per mole of amine |  |
| NC(=O)c1cc[n+](N)cc1.O=[N+]([O-])[O-] [Entry 7] | 1.37 | 0.88 | −0.49 | 0.69 | 1.1 moles of CO2 per mole of amine |  |
| COc1cccc[n+]1N.O=[N+]([O-])[O-] [Entry 16] | 2.46 | 1.73 | −0.73 | 0.76 | 1.05 moles of CO2 per mole of amine |  |
| Cc1ccc[n+](N)c1.[O-][Cl+3]([O-])([O-])[O-] [Entry 13] | 1.47 | 1.00 | −0.47 | 0.83 |  |  |
| CN(C)c1cc[n+](N)cc1 [Entry 6] | 1.28 | 0.85 | −0.43 | 0.99 | 2.0 moles of CO2 per mole of amine |  |
| Cc1cccc(C)[n+]1N.[O-][Cl+3]([O-])([O-])[O-] [Entry 17] | 1.47 | 1.04 | −0.43 |  |  |  |
| COc1cc[n+](N)cc1.[O-][Cl+3]([O-])([O-])[O-] [Entry 4] | 1.75 | 1.05 | −0.70 | 0.70 |  | Low solubility (Observations) (Aqueous solubility): (<0.2M) |
| N[n+]1ccccc1 [1-AP nitrate, 1-aminopyridinium] |  |  |  |  |  | oxidative peak potential [1, 8]: −0.32 V vs. Ag/AgCl; reductive peak potential [1, 8]: −0.45 V vs. Ag/AgCl; gas release rate ([6]; 0.2 M, 0.8 mmol in 4 mL water, 50 mA, 80% of full capacity, each of 5 cycles): 0.75 mL/min; robustness over cycles ([6]; 5 cycles): no significant loss in performance; stable electron utilization ([2]; 1 M 1-AP nitrate solution, 3.5 mL, 100 mA): 1.25; capacity of the electrochemical CO2 release process ([2]; per g of 1-AP nitrate): 12.4 mmol/g; electron utilization ([2]; solution prepared from 0.2 M 1-AP nitrate, 3.5 mL, 50 mA): up to 1.08; cell capacity usage, direct air capture [7]: 36%; electron utilization during CO2 release, direct air capture ([7]; 50 mA): up to 0.78 |
| COc1ccc[n+](N)c1.[O-][Cl+3]([O-])([O-])[O-] [Entry 14] | 1.30 | 0.84 | −0.44 | 0.41 |  |  |
